The text below walks through data of patent US7521065B2, “Compositions for the treatment and prevention of cancer” (priority 2001, dated 2009).

SMILES strings stand for the structures.

The subject of data set [1] is lesion diagnosed as precancerous. Put plainly: Impregnated adhesive bandage on precancerous lesion, case report Example IV. Format: in vivo, human. The following applies: adhesive bandage impregnated with compound; person. From the text:
A person developed a lesion diagnosed as precancerous on the upper part of their back.

In data set [2] the test system is several human cancer cell lines. The following applies: cell cultures; cited from earlier work.
The subject of data set [3] is squamous carcinoma on nose. Kind of data set: Topical cream treatment of squamous carcinoma, case report Example III. Format: in vivo, human. Particulars: cream containing 6%, twice per day for 5 days; person.
Data set [4] relates to normal embryonic liver or lung cells. The following applies: added to the growth media; cited from earlier work.
In data set [5] the test system is high nuclear grade intraductal carcinoma of the right breast. Put plainly: Topical treatment of breast carcinoma, case report Example VII. The data set is classed as in vivo, human. The text has this: A person was diagnosed in July 1999 with a high nuclear grade intraductal carcinoma of the right breast. The tumor consisted of a hard mass in the lower left quadrant of the right breast of 3 cm diameter. In November 1999, a 6% di n-hexyl diselenide in a 1:1 mixture of n-decane and jojoba oil was applied onto the affected breast once per day. […] Status Jan. […] Status April 2001: Unchanged.

Data set [6] relates to metastatic cutaneous and subcutaneous lesions and affected lymph nodes (breast cancer). Put plainly: Topical treatment of breast cancer metastases, case report Example VI. The data set is classed as in vivo, human. From the text: In May 1998 a tumor was diagnosed in the left breast of a […] which had been treated for cancer of the right breast in 1974 by mastectomy, axillar resection, chemotherapy with cytoxan, metothrexate and 5-fluorouracil, and ovariectomy. In May 1999 they presented with numerous skin metastases on their upper torso and lymph node involvement. The patient underwent various therapies in Europe, which included chemotherapy, immunotherapy and hyperthermia, but numerous metastatic cutaneous and subcutaneous metastatic lesions remained on their chest, in the mastectomy scar, in the left axilla and on their back. […] As a precaution they are applying a lotion containing 0.2% solution of di-n-hexyl diselenide in jojoba oil onto areas of their skin once every two weeks.

Data set [7] relates to skin lesion with all characteristics of a superficially spreading melanoma. Kind of data set: Topical treatment of a skin lesion, case report Example I. Format: in vivo, human. The following applies: 10% solution in n-decane, twice a day for 3 days, person, lesion 0.8 cm. The text has this: A subject presented with a skin lesion of 0.8 cm diameter on their right upper chest.

The text on data set [8]:
The therapeutic efficacy of the dialkyl diselenides of these compositions depends on (1) the length of the alkyl residue R, and (2) the composition of the inert carrier as these determine the degree to which they can penetrate through the skin. […] Increasing the average alkyl chain length beyond n-hexyl causes them to become less skin penetrating and more suitable for the treatment of superficial cancerous lesions. Shortening the chain length below n-hexyl increases the volatility of these compounds. This reduces their therapeutic efficacy as it causes them to evaporate when brought onto the skin.
Selection of the appropriate alkyl residues R in these compounds is important as it determines their ability to penetrate the skin. Preferred are dialkyl diselenides with linear, medium-length straight alkyl residues of at least 6 and not exceeding 8 carbon atoms.

For data set [9], the system named is inoperable cancer of the rectum. Put plainly: Suppository treatment of rectal cancer, case report Example VIII. The following applies: suppositories containing 2% in cocoa butter, daily for 4 weeks. Format: in vivo, human. Here is the method:
A person was diagnosed with inoperable cancer of the rectum in 1998 and was offered radiation therapy, which they refused. A colostomy was performed in the fall of 1998. They applied suppositories containing 2% di-n-hexyl diselenide in cocoa butter daily into their rectum for a period of 4 weeks.

Data set [10] deals with irregular melanotic spot on right hand. Put plainly: Topical treatment of a melanotic spot, case report Example II. Particulars: 10% solution in 1:1 n-decane/n-dodecane, once every day for one week, person. Format: in vivo, human. From the text:
A subject presented with a small irregular melanotic spot of approximately 3 mm diameter on their right hand which the subject had since birth but which in recent years had increased in size and became unsymmetrical. […] New skin growing over the lesion closed it without a scar.

Data set [11] relates to small lump on breast. Put plainly: Cream applied onto breasts, case report Example V. The data set is classed as in vivo, human. The following applies: 0.2% in moisturizing cream, once a week; person. From the text:
A person with a small lump on their breast was told that they were at risk of developing breast cancer. They applied onto their breasts once a week a cream containing 0.2% di-n-hexyl diselenide in a moisturizing cream of conventional composition. […] They presently continue to apply the selenium composition once a week as a precautionary measure.

For the compound `CCCCCCCC[Se][Se]CCCCCCCC` [di-n-octyl diselenide], the “outcome of precancerous lesion” value in data set [1] was “caused the lesion to dry out and drop off without a scar within 3 weeks”.
In the case of `CCCCCCC[Se][Se]CCCCCCC` [di-n-heptyl diselenide], the “growth of cancer cell lines” value in data set [2] was “inhibit the growth”. In addition, in data set [3], the “outcome of squamous carcinoma lesion” value is listed as “disappearance of the lesion”.
With `O=[Se](O)O` [sodium selenite], in [4], the “effect on normal cells” value was “without affecting”.
In the case of `CCCCCC[Se][Se]CCCCCC` [di-n-hexyl diselenide], in data set [5] (6% in 1:1 n-decane/jojoba oil, once per day, breast mass 3 cm diameter), the “outcome of breast mass” value was “Over a period of 4 weeks the breast mass shrunk and ultimately disappeared”. The “status by ultrasonic examination” value in [5] (Status Jan. 8, 2000, unchanged April 2001) is reported as “No breast mass detectable”. Also, the “outcome of metastatic lesions and affected lymph nodes” value in data set [6] (5% in n-decane) is “caused their disappearance within two weeks”. Further, the follow-up after treatment result in data set [6] (after 5% in n-decane) is given as “remained free of cancer for two years”. In addition, the “outcome of skin lesion” value in data set [7] is listed as “caused a layer of dead cells to be formed which dropped off after 4 days without leaving a scar”. For the same compound, the skin penetration properties result in [8] was “excellent skin penetration properties”. For the same compound, in data set [9], the “patient status during the following 2 years” value was “their status has remained stable, they gained weight, and was able to work”; the “tumor mass by X-ray and sonographic examinations” value is given as “the tumor mass had ceased to grow”. In addition, the “outcome of melanotic spot” value in data set [10] was “caused the affected skin to turn brittle and to fall off”. The “outcome of breast lump” value in data set [11] is “lump in their breast disappeared over a period of two months”.
As to `CCCCCC[SeH]` [n-hexyl selenol], in data set [6] (10% solution in n-decane), the “outcome of recurrences on chest and metastases on back” value was “effectively controlled”. For the same compound, the “follow-up after treatment of recurrences” value in data set [6] (after 10% solution in n-decane) is recorded as “remained free of obvious signs of cancer for one year”.
